These results are taken from patent US11771772B2, “Glycemic control using intrinsic factor bound to a vitamin B12 conjugate of a glucagon-like peptide-1 receptor agonist” (Syracuse University, priority 2015, dated 2023).

In assay [1] the target is T1, Intrinsic factor (Homo sapiens, UniProt P27352).
T1 construct: purchased Xeragenx LLC XGX-003; host or cells: Arabidopsis (transgenic plant)
In words: IF binding, chase experiment with 57Co radiolabeled B12. The note with it: read-out: binding affinity to IF.
From the text: Peptides were purchased through CSBio (Menlo Park, Calif.) and all materials were purchased through Sigma-Aldrich unless stated otherwise. Apo-IF was supplied by Xeragenx LLC (cat no: XGX-003). […] IF used in these assays was produced in the plant Arabidopsis in the apo-form and of high purity

In assay [2] the target is T1, Intrinsic factor. To be noted: general statement in description; read-out: IF binding affinity (Kd); cited from earlier work.

Read-outs that look alike come from different tables or passages of the source.

T1 sequence (P27352 19-417): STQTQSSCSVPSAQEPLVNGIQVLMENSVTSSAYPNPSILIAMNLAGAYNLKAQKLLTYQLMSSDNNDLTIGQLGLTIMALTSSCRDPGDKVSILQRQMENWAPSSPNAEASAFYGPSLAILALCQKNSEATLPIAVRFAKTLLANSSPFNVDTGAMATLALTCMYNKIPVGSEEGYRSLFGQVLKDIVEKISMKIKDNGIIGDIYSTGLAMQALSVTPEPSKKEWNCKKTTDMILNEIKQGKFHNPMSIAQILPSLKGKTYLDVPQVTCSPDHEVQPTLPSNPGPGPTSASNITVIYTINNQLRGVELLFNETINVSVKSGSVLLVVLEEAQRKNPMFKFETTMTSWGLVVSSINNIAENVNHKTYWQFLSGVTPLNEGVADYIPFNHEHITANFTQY

With cyanocobalamin [Compound B12], the Kd was 0.12 nM on Intrinsic factor [1] and ~0.001 nM at Intrinsic factor [2].
